Assay results reported in patent publication US20050209157A1, “Short bioactive peptides and methods for their use” (priority 2001, published 2005).
Values after ≈ are worked out from the molar mass of the structure shown. No end group written: not given here.

Columns and labels:
[1] = system: Stapholococcus aureus ATCC 25923; assay: Antimicrobial assay I, modified protocol (tryptic soy broth), MBC; details: minimum bactericidal concentration, Table 4
[2] = system: Escherichia coli ATCC 25922; assay: as above; details: minimum bactericidal concentration, Table 4
[3] = system: Pseudomonas aeruginosa ATCC 27853; assay: as above; details: minimum bactericidal concentration, Table 4
in vitro [4] = type: cell-based, human; details: human, human red blood cells, pH 7, hemolytic assay, concentration at 50% hemolysis, 1 hour at 37° C.; read-out: LD50
in vitro [5] = details: human, WI38 normal lung fibroblast cells, LD50 WI38, WI38 normal lung fibroblast line, MTT, 24 hours with peptide
WI38 = details: MTT, 24 hours with peptide; normal fibroblast line
[6] = system: yeast (Saccharomyces cerevisiae); assay: Antimicrobial assay I, yeast assay in RPMI 1640; type: cell-based; details: RPMI 1640 media
Procedure: (§1) The data for the following antimicrobial assay of the peptides have been obtained by making OD measurements in in vitro cell culture experiments with and without added peptide. The protocol used is as follows.
(§2) Absorbance was read at 620 nm after shaking to resuspend cells.
The yeast assay was performed in RPMI 1640 media (pH 7.0 at 25° C.).
(§3) Staph6538 is Staphylococcus aureus ATCC accession number 6538; paerug9027 is Pseudomonas aeruginosa ATCC accession number 9027, yeast is Saccharomyces cerevisiae.

[7] = system: Pseudomonas aeruginosa ATCC 9027; assay: Antimicrobial assay I, MIC by OD measurement; type: cell-based; details: 37° C. for 24 hours, absorbance 620 nm
Excerpt: as §1
(§4) Cell lines included Staphylococcus aureus ATCC 6538 or 25923, Pseudomonas aeruginosa ATCC 9027 or 27853. Medium used were Antibiotic Medium 3 (Difco), Antibiotic Medium 2 (Difco), and 0.85% saline. Controls used were physiological saline, and gentamycin at 50, 25, 10, 5, 1, and 0.1 ppm.
as §2, §3

[8] = system: Staphylococcus aureus ATCC 6538; assay: Antimicrobial assay I, MIC by OD measurement; type: cell-based; details: 37° C. for 24 hours, absorbance 620 nm
Excerpt: as §1, §4, §2, §3

H1299 = assay: Anti-cancer assay, MTT, LD50; type: cell-based; details: 24 hours with peptide, lung large cell carcinoma
Excerpt: (§5) Numbers are LD50 values (μg/mL).

PC3 = assay: Anti-cancer assay, MTT, LD50; type: cell-based; details: 24 hours with peptide, prostate adenocarcinoma
Excerpt: as §5

MCF7 = assay: Anti-cancer assay, MTT, LD50; type: cell-based; details: MCF7 breast adenocarcinoma line, MTT, 24 hours with peptide
Excerpt: as §5

SW480 = assay: Anti-cancer assay, MTT, LD50; type: cell-based; details: SW480 colon adenocarcinoma line, 24 hours with peptide
Excerpt: as §5

HeLaS3 = assay: Anti-cancer assay, MTT, LD50; type: cell-based; details: 24 hours with peptide, cervical carcinoma
Excerpt: as §5

BMKC = assay: Anti-cancer assay, MTT, LD50; type: cell-based; details: BMKC cloned melanoma line, 24 hours with peptide
Excerpt: as §5

P. aeruginosa H374 = type: cell-based, Pseudomonas aeruginosa
Procedure: The synergistic effects of the inventive peptides with either chloramphenicol or nalidixic acid against efflux mutants of Pseudomonas aeruginosa were investigated. The MIC values were determined for either nalidixic acid or chloramphenicol alone as baselines. Peptides were added at their ¼ MIC concentration, and the concentration of either nalidixic acid or chloramphenicol to arrive at the MIC was determined. […] The fractional inhibitory concentration (FIC) index was used to determine synergy between peptides and antibiotics. Two-fold serial dilutions of antibiotic were tested in the presence of a constant amount of peptide, equal to one quarter of peptide MIC. The FIC index was determined as follows: FIC=0.25+MICantibiotic in combination/MICantibiotic alone. An FIC index of 0.5 or less is considered as synergy.

| Compound | MBC S. aur A.25923 [1] [µg/mL] | MBC E. coli A.25922 [2] [µg/mL] | MBC P. aerug A.27853 [3] [µg/mL] | HC50 at 1 h (in vitro [4]) [µg/mL] | CC50 at 24 h (in vitro [5]) [µg/mL] | WI38 LD50 (WI38) [µg/mL] | yeast (MIC or MFC) [6] [µg/mL] | paerug9027 (MIC) [7] [µg/mL] | staph6538 (MIC) [8] [µg/mL] | H1299 LD50 (H1299) [µg/mL] | PC3 LD50 (PC3) [µg/mL] | LD50 MCF7 (MCF7) [µg/mL] | LD50 SW480 (SW480) [µg/mL] | HeLaS3 LD50 (HeLaS3) | LD50 BMKC (BMKC) [µg/mL] | MIC Cm-comb. (P. aeruginosa H374; MIC of chloramphenicol with peptide at ¼ MIC) [µg/mL] | FIC Index (P. aeruginosa H374; chloramphenicol + peptide at ¼ MIC, 0.5 or less = synergy) |
| --- | --- | --- | --- | --- | --- | --- | --- | --- | --- | --- | --- | --- | --- | --- | --- | --- | --- |
| CC(C)C[C@H](NC(=O)[C@H](C)NC(=O)[C@H](CC(C)C)NC(=O)[C@H](CCCCN)NC(=O)[C@H](C)NC(=O)[C@H](CC(C)C)NC(=O)[C@H](CCCCN)NC(=O)[C@H](CCCCN)NC(=O)[C@H](CC(C)C)NC(=O)[C@H](CCCCN)NC(=O)[C@H](CCCCN)NC(=O)[C@H](C)NC(=O)[C@H](CC(C)C)NC(=O)[C@H](CCCCN)NC(=O)[C@H](CCCCN)NC(=O)[C@H](C)NC(=O)[C@@H](N)Cc1ccccc1)C(=O)N[C@@H](C)C(=O)N[C@@H](CCCCN)C(N)=O [compound 41] | 40 (≈ 19 µM) | 40 (≈ 19 µM) | 40 (≈ 19 µM) |  |  |  |  |  |  |  |  |  |  |  |  |  |  |
| CC[C@H](C)[C@H](NC(=O)CNC(=O)[C@H](CC(N)=O)NC(=O)[C@H](CCCNC(=N)N)NC(=O)[C@@H](NC(=O)[C@H](CC(N)=O)NC(=O)[C@H](CCCNC(=N)N)NC(=O)CNC(=O)[C@@H](NC(=O)[C@H](CCCCN)NC(=O)[C@H](CCC(=O)O)NC(=O)[C@@H](NC(=O)[C@H](CCCCN)NC(=O)[C@H](CCCCN)NC(=O)[C@H](Cc1ccccc1)NC(=O)[C@@H](NC(=O)[C@H](CCCCN)NC(=O)[C@H](Cc1c[nH]c2ccccc12)NC(=O)[C@H](CCCCN)NC(=O)[C@@H]1CCCN1C(=O)[C@@H](N)CCSC)C(C)C)[C@@H](C)CC)C(C)C)[C@@H](C)CC)C(=O)N[C@H](C(=O)N[C@@H](CCCCN)C(=O)N[C@@H](C)C(=O)NCC(=O)N1CCC[C@H]1C(=O)N[C@@H](C)C(=O)N[C@H](C(=O)N[C@@H](C)C(=O)N[C@H](C(=O)N[C@@H](CC(C)C)C(=O)NCC(=O)N[C@@H](CCC(=O)O)C(=O)N[C@@H](C)C(=O)N[C@@H](CCCCN)C(=O)N[C@@H](C)C(=O)N[C@@H](CC(C)C)C(=O)NCC(=O)O)C(C)C)[C@@H](C)CC)C(C)C [compound 5] | 40 (≈ 9.78 µM) | 50 (≈ 12.2 µM) | >60 |  |  |  |  |  |  |  |  |  |  |  |  |  |  |
| CC[C@H](C)[C@H](NC(=O)CNC(=O)[C@H](CC(N)=O)NC(=O)[C@H](CCCNC(=N)N)NC(=O)[C@@H](NC(=O)[C@H](CC(N)=O)NC(=O)[C@H](CCCNC(=N)N)NC(=O)CNC(=O)[C@@H](NC(=O)[C@H](CCCCN)NC(=O)[C@H](CCC(=O)O)NC(=O)[C@@H](NC(=O)[C@H](CCCCN)NC(=O)[C@H](CCCCN)NC(=O)[C@H](Cc1ccccc1)NC(=O)[C@@H](NC(=O)[C@H](CCCCN)NC(=O)[C@H](Cc1c[nH]c2ccccc12)NC(=O)[C@H](CCCCN)NC(=O)[C@@H]1CCCN1C(=O)[C@@H](N)CCSC)C(C)C)[C@@H](C)CC)C(C)C)[C@@H](C)CC)C(=O)N[C@H](C(=O)N[C@@H](CCCCN)C(=O)N[C@@H](C)C(=O)NCC(=O)N1CCC[C@H]1C(=O)N[C@@H](C)C(=O)N[C@H](C(=O)N[C@@H](C)C(=O)N[C@H](C(=O)N[C@@H](CC(C)C)C(=O)NCC(=O)N[C@@H](CCC(=O)O)C(=O)N[C@@H](C)C(=O)N[C@@H](CCCCN)C(=O)N[C@@H](C)C(=O)N[C@@H](CC(C)C)C(=O)NCC(N)=O)C(C)C)[C@@H](C)CC)C(C)C [compound 12] | 75 (≈ 18.3 µM) | 50 (≈ 12.2 µM) | >60 |  |  |  |  |  |  |  |  |  |  |  |  |  |  |
| KWKLAKKALALL-NH2 [P142] |  |  |  | 900 | 73 | 73 | 100 | 50 | 100 | 115 | 60 | 44 | 38 | 55 µg/mL | 38 |  |  |
| FKRLAKIKVLRLAKIKR-NH2 [P147] |  |  |  | 300 | 83 | 83 | 200 | 5 | 5 | 93 | 340 | 106 | 185 | > (> indicates greater than 1000) | 110 |  |  |
| FAKLLAKLAKAKL-NH2 [P65] |  |  |  | 950 | 320 | 320 | 200 | 50 | 15 | 450 | 470 | 475 | 345 | 210 µg/mL | 250 |  |  |
| WALAL-NH2 [P184, WALAL-NH2] |  |  |  | 850 | 800 | 800 | 100 | 100 | 25 | 370 | 570 | 260 | 440 | 302 µg/mL | 600 |  |  |
| FAKKLAKLAKKLLAL-NH2 [P38, FAKKLAKLAKKLLAL-NH2] |  |  |  | 350 | 12 | 12 | 50 | 50 | 5 | 33 | 10 | 17 | 13 | 35 µg/mL | 21 |  |  |
| FALLKALKKAL-NH2 [P171, FALLKALKKAL-NH2] |  |  |  | 550 | 615 | 615 | 100 | 50 | 25 | 540 | 600 | 305 | 770 | 820 µg/mL | 600 |  |  |
| FAKLLAKFLKKAL-NH2 [P113] |  |  |  | 1000 | 170 | 170 | 200 | 200 | 10 | 50 | 240 | 150 | 180 | 190 µg/mL | 115 | 16 | 1.25 |
